The subject of data set [1] is Shewanella loihica strain PV-4. Description: disc diffusion growth inhibition screening. The data set is classed as cell-based. The note with it: PV4, S. loihica, 10 μL extract per disc, ampicillin 10 μg, 30° C. 24 h. An excerpt: (§1) Antibacterial screening: Environmental Shewanella strains: Shewanella putrefaciens strain 200, Shewanella baltica strain OS155, Shewanella frigidimarina strain NCIMB 400 and Shewanella loihica strain PV-4 were used. Antibacterial screening was achieved using a modified peptone/yeast extract (PYE) agar containing: 1 g/L peptone, 1.5 g/L yeast extract, 7.5 g/L NaCl, 1 g/L ammonium persulfate, 2.4 g/L HEPES buffer (pH 7.5) and 16 g/L bacteriological agar. The S. putrefaciens and S. loihica cultures were incubated at 30° C. for 24 h. The S. baltica and S. frigidimarina cultures were incubated at 15° C. for 72 h. All stock cultures were subcultured and maintained in PYE media at 4° C. Evaluation of antibacterial activity: Antibacterial activity screening of the […] fruit and leaf extracts was assessed using a modified disc diffusion assay. […] Discs were infused with 10 μL of the […] fruit and leaf extracts, allowed to dry and placed onto the inoculated plates. The plates were left to stand at 4° C. for 2 h before incubation. Plates inoculated with S. putrefaciens or S. loihica cultures were incubated at 30° C. for 24 h. S. baltica or S. frigidimarina cultures were incubated at 15° C. for 72 h. The diameters of the inhibition zones were measured to the closest whole millimetre. Each assay was completed in at least triplicate. Mean values (±SEM) are reported in this study. Ampicillin discs (10 μg) were obtained and used as positive controls to compare antibacterial activity. Filter discs infused with 10 μL of distilled water were used as a negative control.
Background: A growth-free zone around the sample is the usual read-out of agar diffusion tests.

Data set [2] relates to Shewanella putrefaciens strain 200. Description: disc diffusion growth inhibition screening. The data set is classed as cell-based. To be noted: S. putrefaciens, 10 μL extract per disc, ampicillin 10 μg, 30° C. 24 h.
Source text: as §1

Data set [3] deals with Shewanella baltica strain OS155. The experiment in a line: disc diffusion growth inhibition screening. The data set is classed as cell-based. To be noted: S. baltica.
Source text: as §1

Data set [4] deals with Shewanella frigidimarina strain NCIMB 400. The experiment in a line: disc diffusion growth inhibition screening. The data set is classed as cell-based. The note with it: S. frigidimarina. An excerpt:
Antibacterial screening: Environmental Shewanella strains: Shewanella putrefaciens strain 200, Shewanella baltica strain OS155, Shewanella frigidimarina strain NCIMB 400 and Shewanella loihica strain PV-4 were used. Antibacterial screening was achieved using a modified peptone/yeast extract (PYE) agar containing: 1 g/L peptone, 1.5 g/L yeast extract, 7.5 g/L NaCl, 1 g/L ammonium persulfate, 2.4 g/L HEPES buffer (pH 7.5) and 16 g/L bacteriological agar.
The S. putrefaciens and S. loihica cultures were incubated at 30° C. for 24 h. The S. baltica and S. frigidimarina cultures were incubated at 15° C. for 72 h. All stock cultures were subcultured and maintained in PYE media at 4° C.
Evaluation of antibacterial activity: Antibacterial activity screening of the T. ferdinandiana fruit and leaf extracts was assessed using a modified disc diffusion assay. Briefly, 100 μL of each individual Shewanella spp. was grown separately in 20 mL of fresh nutrient broth until an approximate count of 10^8 cells/mL was achieved. A volume of 100 μL of each bacterial suspension was spread onto nutrient agar plates and the extracts were tested for antibacterial activity using 5 mm sterilised filter paper discs. […]
Plates inoculated with S. putrefaciens or S. loihica cultures were incubated at 30° C. for 24 h. […] The diameters of the inhibition zones were measured to the closest whole millimetre. […]

For data set [5], the system named is Artemia franciscana nauplii. Description: Artemia franciscana nauplii lethality assay. The note with it: potassium dichromate 1000 μg/mL.
Experimental: Artemia franciscana nauplii toxicity screening: Toxicity was assessed using a modified Artemia franciscana nauplii lethality assay. Briefly, 400 μL of seawater containing ˜53 (mean 52.7, n=125, SD 11.8) A. franciscana nauplii were added to wells of a 48 well plate and immediately used in the bioassay. A volume of 400 μL of the reference toxin or the diluted plant extracts were transferred to the wells and incubated at 25±1° C. under artificial light (1000 Lux). For each plate, a 400 μL seawater negative control was run in triplicate. The wells were assessed at regular intervals and the number of dead counted. The nauplii were deemed dead if no movement of the appendages was observed within 10 seconds. After 24 h, all nauplii were sacrificed and counted to determine the total % mortality per well.
To further quantify the effects of toxin concentration on the initiation of mortality, the extracts were serially diluted in artificial seawater to test across a range of concentrations in the Artemia nauplii bioassay.

The zone of inhibition is the size of the clear area around the sample on an inoculated plate. Read a high zone of inhibition as wide suppression of growth. Turning to `CC1(C)S[C@@H]2[C@H](NC(=O)[C@H](N)c3ccccc3)C(=O)N2[C@H]1C(=O)O` [ampicillin], the zone of inhibition at 10 µg/disc in data set [1] amounted to 19.6 ± 1.3 mm; in data set [2] it was 8.3 ± 0.6 mm. The “growth inhibitory activity (in words)” value is listed as “unaffected” in data set [3] and “resistant” in data set [4].

In general, mortality refers to the percentage killed. A higher mortality goes with fewer survivors. For the compound `[K+].[K+].[O]=[Cr](=[O])([O-])[O][Cr](=[O])(=[O])[O-]` [potassium dichromate], in data set [5], the “onset of nauplii death” value is reported as at most 3 h. Moreover, in data set [5] (within 5 hours), the mortality is given as 100%.

(Values after patent US20200221740A1, “TERMINALIA FERDINANDIANA LEAF EXTRACT AND PRODUCTS CONTAINING EXTRACT OF TERMINALIA FERDINANDIANA LEAF” (RISING PHOENIX INDUSTRIES PTY LTD, priority 2017, published 2020).)
